Measured values as given in ChEMBL document CHEMBL1201862, “PubChem BioAssay data set” (2004).
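Where inhibition never reached the appropriate level, the endpoint shown equals the highest concentration tested. Otherwise, values were interpolated linearly from a five-concentration, 48-hour dose response in 96-well plates. GI50 is the concentration that inhibits growth by half.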 Activity calls are given as the source filed them. No stated cut-off is given here; in the data, active = GI50 up to about 1.1 µM and inactive = higher.

What was measured:
Experiment in all cases: NCI tumour cell line growth inhibition, 48 h
[1] = tested on: 786-0
[2] = tested on: A498
[3] = tested on: A549
[4] = tested on: ACHN
[5] = tested on: BT-549
[6] = tested on: CAKI-1
[7] = tested on: CCRF-CEM
[8] = tested on: COLO 205
[9] = tested on: DU-145
[10] = tested on: EKVX
[11] = tested on: HCC 2998
[12] = tested on: HCT-116
[13] = tested on: HCT-15
[14] = tested on: HOP-62
[15] = tested on: HOP-92
[16] = tested on: HT-29
[17] = tested on: Hs-578T
[18] = tested on: IGROV-1
[19] = tested on: K562
[20] = tested on: KM12
[21] = tested on: LOX IMVI
[22] = tested on: M14
[23] = tested on: MCF7
[24] = tested on: MDA-MB-231
[25] = tested on: MDA-MB-435
[26] = tested on: MDA-N
[27] = tested on: Malme-3M
[28] = tested on: NCI-H226
[29] = tested on: NCI-H23
[30] = tested on: NCI-H460
[31] = tested on: NCI-H522
[32] = tested on: NCI/ADR-RES
[33] = tested on: OVCAR-3
[34] = tested on: OVCAR-4
[35] = tested on: OVCAR-5
[36] = tested on: OVCAR-8
[37] = tested on: PC-3
[38] = tested on: RPMI-8226
[39] = tested on: RXF 393
[40] = tested on: SF-268
[41] = tested on: SF-295
[42] = tested on: SF-539
[43] = tested on: SK-MEL-28
[44] = tested on: SK-MEL-2
[45] = tested on: SK-MEL-5
[46] = tested on: SK-OV-3
[47] = tested on: SN12C
[48] = tested on: SNB-19
[49] = tested on: SW-620
[50] = tested on: T47D
[51] = tested on: TK-10
[52] = tested on: U-251
[53] = tested on: UACC-257
[54] = tested on: UACC-62
[55] = tested on: UO-31
[56] = tested on: HL-60
[57] = tested on: MOLT-4
[58] = tested on: SNB-75
[59] = tested on: SR

Cc1[nH]c(C)c(CN(C)C)c1CN(C)C
GI50 [1]: > 100 µM (inactive) | GI50 [2]: > 100 µM (inactive) | GI50 [3]: > 100 µM (inactive) | GI50 [4]: > 100 µM (inactive) | GI50 [5]: > 100 µM (inactive) | GI50 [6]: > 100 µM (inactive) | GI50 [7]: > 100 µM (inactive) | GI50 [8]: > 100 µM (inactive) | GI50 [9]: > 100 µM (inactive) | GI50 [10]: > 100 µM (inactive) | GI50 [11]: > 100 µM (inactive) | GI50 [12]: > 100 µM (inactive) | GI50 [13]: > 100 µM | GI50 [14]: > 100 µM (inactive) | GI50 [15]: > 100 µM (inactive) | GI50 [16]: > 100 µM (inactive) | GI50 [17]: > 100 µM (inactive) | GI50 [18]: > 100 µM (inactive) | GI50 [19]: > 100 µM (inactive) | GI50 [20]: > 100 µM (inactive) | GI50 [21]: > 100 µM (inactive) | GI50 [22]: > 100 µM (inactive) | GI50 [23]: > 100 µM (inactive) | GI50 [24]: > 100 µM (inactive) | GI50 [25]: > 100 µM (inactive) | GI50 [26]: > 100 µM (inactive) | GI50 [27]: > 100 µM (inactive) | GI50 [28]: > 100 µM (inactive) | GI50 [29]: > 100 µM (inactive) | GI50 [30]: > 100 µM (inactive) | GI50 [31]: > 100 µM (inactive) | GI50 [32]: > 100 µM (inactive) | GI50 [33]: > 100 µM (inactive) | GI50 [34]: > 100 µM (inactive) | GI50 [35]: > 100 µM (inactive) | GI50 [36]: > 100 µM (inactive) | GI50 [37]: > 100 µM (inactive) | GI50 [38]: > 100 µM (inactive) | GI50 [39]: > 100 µM (inactive) | GI50 [40]: > 100 µM (inactive) | GI50 [41]: > 100 µM (inactive) | GI50 [42]: > 100 µM (inactive) | GI50 [43]: > 100 µM (inactive) | GI50 [44]: > 100 µM (inactive) | GI50 [45]: > 100 µM (inactive) | GI50 [46]: > 100 µM (inactive) | GI50 [47]: > 100 µM (inactive) | GI50 [48]: > 100 µM (inactive) | GI50 [49]: > 100 µM (inactive) | GI50 [50]: > 100 µM (inactive) | GI50 [51]: > 100 µM (inactive) | GI50 [52]: > 100 µM (inactive) | GI50 [53]: > 100 µM (inactive) | GI50 [54]: > 100 µM (inactive) | GI50 [55]: > 100 µM (inactive)

CCCC(CCC(=O)O)(CCC(=O)O)[N+](=O)[O-]
GI50 [1]: > 100 µM (inactive) | GI50 [3]: > 100 µM (inactive) | GI50 [4]: > 100 µM (inactive) | GI50 [5]: > 100 µM (inactive) | GI50 [6]: > 100 µM (inactive) | GI50 [8]: > 100 µM (inactive) | GI50 [9]: > 100 µM (inactive) | GI50 [10]: > 100 µM (inactive) | GI50 [12]: > 100 µM (inactive) | GI50 [13]: > 100 µM | GI50 [56]: > 100 µM (inactive) | GI50 [15]: > 100 µM (inactive) | GI50 [16]: > 100 µM (inactive) | GI50 [17]: > 100 µM (inactive) | GI50 [18]: > 100 µM (inactive) | GI50 [19]: > 100 µM (inactive) | GI50 [20]: > 100 µM (inactive) | GI50 [22]: > 100 µM (inactive) | GI50 [23]: > 100 µM (inactive) | GI50 [24]: > 100 µM (inactive) | GI50 [25]: > 100 µM (inactive) | GI50 [26]: > 100 µM (inactive) | GI50 [57]: > 100 µM (inactive) | GI50 [27]: > 100 µM (inactive) | GI50 [28]: > 100 µM (inactive) | GI50 [29]: > 100 µM (inactive) | GI50 [30]: > 100 µM (inactive) | GI50 [31]: > 100 µM (inactive) | GI50 [32]: > 100 µM (inactive) | GI50 [35]: > 100 µM (inactive) | GI50 [36]: > 100 µM (inactive) | GI50 [37]: > 100 µM (inactive) | GI50 [38]: > 100 µM (inactive) | GI50 [39]: > 100 µM (inactive) | GI50 [40]: > 100 µM (inactive) | GI50 [41]: > 100 µM (inactive) | GI50 [42]: > 100 µM (inactive) | GI50 [44]: > 100 µM (inactive) | GI50 [45]: > 100 µM (inactive) | GI50 [46]: > 100 µM (inactive) | GI50 [47]: > 100 µM (inactive) | GI50 [48]: > 100 µM (inactive) | GI50 [58]: > 100 µM (inactive) | GI50 [59]: > 100 µM (inactive) | GI50 [49]: > 100 µM (inactive) | GI50 [50]: > 100 µM (inactive) | GI50 [51]: > 100 µM (inactive) | GI50 [52]: > 100 µM (inactive) | GI50 [53]: > 100 µM (inactive) | GI50 [54]: > 100 µM (inactive) | GI50 [55]: > 100 µM (inactive)
